Each block holds one compound with its values, some of them ahead of it.
What was measured:
SH-SY5Y cells [1] = experiment: Western blot of PARP cleavage (apoptosis) in SH-SY5Y cells; assay type: cell-based
Experimental: (§1) Cell culture, cell extract preparation, SDS-PAGE, and western blot: SH-SY5Y pediatric neuroblastoma cells were purchased from ATCC. Pediatric glioblastoma multiforme cell line CHLA-200 was a generous gift from Dr. C. Patrick Reynolds (Texas Tech). Cancer cells were cultured in RPMI-1640 supplemented with 10% fetal bovine serum (FBS) and 1% Penicillin-Streptomycin. Cells were lysed with RIPA lysis buffer (Millipore) containing protease inhibitor cocktails (Roche). The protein concentration was measured by the Lowry method. Equal amounts of protein were subjected to SDS-PAGE and then transferred to a PVDF membrane. The proteins of interest were then probed with their respective antibodies.
Since the p53 tumor suppressor protein is also a stimulator of cell apoptosis, the levels of PARP, a substrate of caspase 3, were examined in SH-SY5Y cells treated with 4Ei-10.

[2] = system: p53 tumor suppressor protein; experiment: Western blot of p53 and p21Cip1 induction in SH-SY5Y cells; assay type: cell-based, human
Experimental: as §1
(§2) SH-SY5Y cells were treated with 4Ei-10. SH-SY5Y is a neuroblastorna cell line that contains wild-type p53. 4Ei-10 is a small molecule translation inhibitor. It is a prodrug that is converted to N7-chlorophenoxyethyl guanosine monophosphate by the enzyme hHINT1 in the cell as shown in FIG. 1A. N7-chlorophenoxyethyl guanosine monophosphate competes with the cap structure for binding to eIf-4E, preventing the recruitment of the 5′ mRNA cap structure to the eIF-4F complex. […] A time-course study was then performed by treating SH-SY5Y cells with 4Ei-10 at a concentration of 100 μM.
To determine if the increase of the p53 tumor suppressor protein caused by 4Ei-10 is associated with enhanced p53 tumor suppressor protein synthesis, SH-SY5Y cells were treated with 4Ei-10 or 4Ei-10 plus cycloheximide, a protein synthesis (elongation) inhibitor.

MCF-7 cells = experiment: Western blot of p53 and PARP cleavage in MCF-7 cells; assay type: cell-based; settings: 4Ei-10 alone
Experimental: Sub-confluent MCF-7 cells were treated with either 100 μM 4Ei-10, 50 μM 4EGI-1, or both for 24 hours. After treatment, both floating and attached cells were collected and lysed. Equal amounts of protein were subjected to SDS-PAGE and transferred to a PVDF membrane. p53, PARP, cleaved PARP, and β-actin were detected with their respective antibodies.

[3] = system: cell lines of mantle cell lymphoma (MCL); settings: cited from earlier work
SH-SY5Y cells [4] = experiment: Indirect immunofluorescence of phosphorylated H2A.X foci (DNA double strand breaks); assay type: cell-based; settings: nucleus
Experimental: Indirect immunofluorescence: Chamber slides (8 wells, Lab-Tek) were treated with Poly-L-Lysine (Sigma) prior to seeding with SH-SY5Y cells at 8000 cells/well. Sub-confluent cells were treated with different reagents. After treatment, cells were briefly fixed in 3% paraformaldehyde solution and were then permeablized with 0.2% Triton X-100 in Tris-buffered saline. After permeabilization, cells were incubated with a phosphor-Histone H2A.X antibody (Millipore) and then with a Texas-Red conjugated secondary antibody (Jackson Laboratories) followed by DAPI staining. Images were recorded using a Nikon Eclipse TE2000-E confocal microscope at 60× magnification.
Foci formation of phosphorylated H2A.X, which recognizes DNA double strand breaks, was examined.

IRES of p53 mRNA = experiment: Dual luciferase assay of p53 IRES activity (pR5UTRF reporter); assay type: cell-based; settings: SH-SY5Y cells transfected with pR5UTRF, compared to untreated control cells
Experimental: Dual luciferase assays: Cells were lysed with passive lysis buffer (Promega). The dual-luciferase reporter assay (Promega) was then performed according to the manufacturer's instructions. Firefly and Renilla luciferase activities were determined with a Synergy 2 (BioTek) microplate reader.
To determine if the IRES activity of p53 mRNA increases during 4Ei-10 treatment when cap-dependent protein translation is halted by 4Ei-10, a bicistronic dual-luciferase reporter vector pR5UTRF, which contains the IRES sequence (−131 nt before 1st AUG of p53 ORF, accession number, NM_00546.4) of the p53 mRNA, was used to transfect SH-SY5Y cells. The IRES activity of p53 mRNA was then measured as the ratio of firefly (Fluc, controlled by the IRES sequence of p53 mRNA) to Renilla luciferase (Rluc) activity, Rluc is controlled by eIF4E and cap-dependent protein translational machinery and was used as an internal control for Fluc.

SH-SY5Y cells [5] = experiment: Cell Death ELISA analysis; assay type: cell-based; settings: data not shown
CHLA-200 cells = experiment: Western blot of p53, p21Cip1 and PARP cleavage in CHLA-200 cells; assay type: cell-based
Experimental: as §1
The ability of 4Ei-10 to induce the p53 tumor suppressor protein in other type of cell lines was also examined. CHLA-200 is a children's glioblastoma multiforme cell line with wild-type p53. CHLA-200 cells were treated with 100 μM 4Ei-10.

eIF4E and eIF4G = target: T1, eIF4E and eIF4G (Homo sapiens, UniProt P06730); experiment: m7-GTP Sepharose bead pull-down of eIF4E and eIF4G; assay type: cell-based; settings: SH-SY5Y cells, 100 μM, 24 hours
T1 construct: endogenous in cells; host or cells: SH-SY5Y
Experimental: SH-SY5Y cells were treated with 100 μM 4Ei-10 for 24 hours. After treatment, cells were lysed and equal amounts of proteins were incubated with m^7-GTP Sepharose beads. After incubation, beads were washed and mixed with SDS-PAGE loading buffer. The eluted proteins were then subjected to SDS-PAGE and transferred to a PVDF membrane. Bound eIF4G and eIF-4E were then detected with total eIF4E and total β-actin as input controls.

SH-SY5Y cells [6] = experiment: Flow cytometry assay of cell cycle distribution; assay type: cell-based
Experimental: Flow Cytometry Assay of Cell Cycle Distribution: Cells were seeded onto six well plates and were grown to sub-confluency. After treatment with or without 4Ei-10, cells were gently removed from the plates, washed once with cold PBS, and fixed with cold 70% ethanol. Cells were then stained with propidium iodide and subjected to flow cytometry (Becton Dickinson FACScalibur). The cell population at each phase was analyzed by the Modfit 2 software.
Since the p53 tumor suppressor protein is known to induce cell cycle arrest through induction of p21Cip1, a cell cycle distribution analysis was performed after treating SH-SY5Y cells with 4Ei-10.

SH-SY5Y cells [7] = experiment: MTT cell viability assay; assay type: cell-based; settings: different concentrations of 4Ei-10
Experimental: MTT cell viability assay: Cells were plated on a 24-well plate at 20,000 cells/well. After treatment with different reagents, the ratio of viable cells in each well was determined using a CellTiter Cell Proliferation kit (Promega) following the manufacturer's instructions. MTS solution was placed in each well at a ratio of 20 μL/100 μL of cell culture medium and incubated in a cell culture incubator for 2-3 hours. Absorbance was then measured at the wavelength of 492 nm with a microplate reader.
as §2

T1 sequence (P06730 2-217 limits assumed): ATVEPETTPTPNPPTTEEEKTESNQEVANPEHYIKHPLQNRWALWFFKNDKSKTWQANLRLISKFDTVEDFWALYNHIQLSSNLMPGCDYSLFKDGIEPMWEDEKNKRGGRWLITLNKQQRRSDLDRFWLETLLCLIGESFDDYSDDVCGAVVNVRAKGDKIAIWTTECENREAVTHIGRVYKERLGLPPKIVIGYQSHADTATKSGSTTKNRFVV

SMILES: O=C(O)C(Cc1ccccc1[N+](=O)[O-])=NNc1nc(-c2ccc(Cl)c(Cl)c2)cs1 (mixture of isomers) [4EGI-1, reference compound]
induction of cellular apoptosis, comparison of single agents and combination (SH-SY5Y cells [1]): stronger ability
induction of the p53 tumor suppressor protein, comparison of single agents and combination [2]: stronger ability

foci formation of phosphorylated H2A.X (DNA double strand breaks) (SH-SY5Y cells [4]): not seen
IRES activity of p53 mRNA (ratio of Fluc/Rluc) (IRES of p53 mRNA): significantly increased
eIF4E bound to the m7-GTP Sepharose beads (eIF4E and eIF4G): decreased
eIF4G bound to the m7-GTP Sepharose beads (eIF4E and eIF4G): decreased
SMILES: CSCCOP(=O)(NCCc1c[nH]c2ccccc12)OC[C@H]1O[C@@H](n2c[n+](CCOc3ccc(Cl)cc3)c3c(=O)[nH]c(N)nc32)C(O)C1O (stereo partly drawn) [4Ei-10]
cell apoptosis (MCF-7 cells): increased cell apoptosis
induction of the p53 tumor suppressor protein (MCF-7 cells): Induction of the p53 tumor suppressor protein was observed
c-Myc expression [3]: suppression of c-Myc expression
expression of p27 [3]: induce the expression of p27
cell proliferation and cell survival ([3]; multiple cell lines of mantle cell lymphoma): inhibits cell proliferation and cell survival
chemosensitization ([3]; to doxorubicin, dexamethasone, and ibrutinib): enhanced chemosensitization
cleaved PARP (cellular apoptosis) (SH-SY5Y cells [1]; 100 μM): increase of cleaved PARP
strength of apoptosis induced (SH-SY5Y cells [1]; 100 μM): relatively weak
treatment time after which apoptosis could be seen (SH-SY5Y cells [1]; 100 μM, prolonged treatment): ≥ 24 h
expression of p53 downstream target p21Cip1 ([2]; 100 μM, time-course): increased expression
p53 tumor suppressor protein accumulation ([2]; 100 μM, time-course): induced p53 tumor suppressor protein accumulation
p53 tumor suppressor protein accumulation with or without cycloheximide ([2]; protein synthesis inhibitor experiment): induction of the p53 tumor suppressor protein
cell death or apoptosis (SH-SY5Y cells [5]): enhanced cell death or apoptosis
cell apoptosis (CHLA-200 cells; CHLA200 cells): increased cell apoptosis
induction of the p53 tumor suppressor protein (CHLA-200 cells; CHLA200 cells): Induction of the p53 tumor suppressor protein was observed
PARP cleavage (apoptosis) (CHLA-200 cells; CHLA-200 cells, 100 μM): induced
p21Cip1 induction (cell cycle arrest) (CHLA-200 cells; CHLA-200 cells, 100 μM): induced
cell numbers at the G1 phase (SH-SY5Y cells [6]): substantial increase
cell numbers at the S phase (SH-SY5Y cells [6]): dramatic decrease
G1S ratio, an indicator of G1 cell cycle arrest (SH-SY5Y cells [6]; compared to control cells): two-fold increase
cell viability or cell proliferation (SH-SY5Y cells [7]): decrease in cell viability or cell proliferation in a concentration-dependent manner

Source: patent US11439656B2, “Pharmaceutical compounds and uses thereof” (Regents of the University of Minnesota, priority 2018, dated 2022)
